Assay results taken from the supplement of paper PMC11061612.

What was measured:
[1] = test system: NCI-H2085 (Non-Small Cell Lung Carcinoma); test: combination Emax (second highest fraction inhibited in the dose matrix, 72 h); higher = more inhibition; extreme values may be limits of the assay
In short: (§1)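 Cell lines grown in DMEM/F12 or RPMI with 10% FBS were plated in 1536-well plates and held 24 hours at 37°C, 5% CO2 before 72 hours of exposure to two-drug dose matrices, with DMSO typically at 0.2%. CellTiter-Glo 2.0 luminescence gave viability, which was converted to inhibition. Vehicle wells were set to 0 and blank wells to 1. Combination Emax is the second-highest inhibition in the matrix, and Bliss excess is the observed combination effect minus the expected EA + EB − EA·EB, where EA and EB are the single-agent effects.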

[2] = test system: DoTc2-4510 (Cervical Carcinoma); test: as above
In short: as §1

[3] = test system: CaR-1 (Colorectal Carcinoma); test: as above
In short: as §1

[4] = test system: KURAMOCHI (Ovarian Carcinoma); test: as above
In short: as §1

[5] = test system: UM-UC-3 (Bladder Carcinoma); test: Bliss excess, mean over the matrix (fraction); higher = more synergy
In short: as §1

[6] = test system: HO-1-N-1 (Oral Cavity Carcinoma); test: as above
In short: as §1

[7] = test system: HT-1376 (Bladder Carcinoma); test: as above
In short: as §1

[8] = test system: ME-1 (Acute Myeloid Leukemia); test: as above
In short: as §1

[9] = test system: NCI-H2085 (Non-Small Cell Lung Carcinoma); test: as above
In short: as §1

[10] = test system: RO82-W-1 (Thyroid Gland Carcinoma); test: as above
In short: as §1

[11] = test system: CAL-148 (Breast Carcinoma); test: as above
In short: as §1

[12] = test system: TE-9 (Esophageal Squamous Cell Carcinoma); test: as above
In short: as §1

T98G (Glioblastoma) = test: as above
In short: as §1

HOS (Osteosarcoma) = test: as above
In short: as §1

[13] = test system: HCC-78 (Lung Adenocarcinoma); test: as above
In short: as §1

KELLY (Neuroblastoma) = test: as above
In short: as §1

[14] = test system: CaR-1 (Colorectal Carcinoma); test: as above
In short: as §1

[15] = test system: KURAMOCHI (Ovarian Carcinoma); test: as above
In short: as §1

[16] = test system: Hs-578-T (Breast Carcinoma); test: as above
In short: as §1

[17] = test system: LS-180 (Colorectal Carcinoma); test: as above
In short: as §1
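Wherever Bliss excess, mean over the matrix is given: after 72 h of two-drug dosing.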

| SMILES | combination Emax [1] | combination Emax [2] | combination Emax [3] | combination Emax [4] | Bliss excess [5] | Bliss excess [6] | Bliss excess [7] | Bliss excess [8] | Bliss excess [9] | Bliss excess [10] | Bliss excess [11] | Bliss excess [12] | Bliss excess (T98G (Glioblastoma)) | Bliss excess (HOS (Osteosarcoma)) | Bliss excess [13] | Bliss excess (KELLY (Neuroblastoma)) | Bliss excess [14] | Bliss excess [15] | Bliss excess [16] | Bliss excess [17] |
| --- | --- | --- | --- | --- | --- | --- | --- | --- | --- | --- | --- | --- | --- | --- | --- | --- | --- | --- | --- | --- |
| C[C@@H](Nc1cc(F)cc(F)c1)c1cc(C(=O)N(C)C)cc2c(=O)cc(N3CCOCC3)oc12 [AZD8186] + C1CN(CCC1(C(=O)N[C@@H](CCO)C2=CC=C(C=C2)Cl)N)C3=NC=NC4=C3C=CN4 [AZD5363] (first compound max 10 µM, 7x7, partner max 10 µM) | 0.542 | 0.286 | 0.394 | 0.254 | 0.0454 | 0.0627 | -0.0404 | -0.052 | -0.045 | -0.0132 | -0.0019 | -0.0405 | 0.0381 | -0.0447 | 0.0408 | -0.0246 | 0.0054 | -0.037 | -0.0815 | -0.0425 |
| C[C@@H](Nc1cc(F)cc(F)c1)c1cc(C(=O)N(C)C)cc2c(=O)cc(N3CCOCC3)oc12 [AZD8186] + CC(=O)c1c(C)c2cnc(Nc3ccc(N4CCNCC4)cn3)nc2n(C2CCCC2)c1=O [Palbociclib] (first compound max 10 µM, 7x7, partner max 10 µM) | 0.61 | 0.297 | 0.471 | 0.28 | 0.131 | 0.0805 | -0.037 | 0.0065 | 0.0565 | 0.033 | 0.033 | -0.0589 | 0.0744 | -0.0227 | 0.0329 | 0.0897 | -0.0054 | -0.0358 | -0.0091 | 0.0004 |
| C[C@@H](Oc1cc(-c2cnn(C3CCNCC3)c2)cnc1N)c1c(Cl)ccc(F)c1Cl [Crizotinib] + CC1=C(C(=CC=C1)Cl)NC(=O)C2=CN=C(S2)NC3=CC(=NC(=N3)C)N4CCN(CC4)CCO [Dasatinib] (first compound max 10 µM, 7x7, partner max 2 µM) | 1 | 0.897 | 0.943 | 0.909 | 0.0577 | 0.0921 | -0.0104 | -0.0061 | 0.0551 | 0.0517 | -0.0351 | 0.0657 | 0.0943 | -0.0153 | 0.0887 | -0.019 | 0.0573 | -0.0038 | 0.0455 | -0.0156 |
| C[C@@H](Oc1cc(-c2cnn(C3CCNCC3)c2)cnc1N)c1c(Cl)ccc(F)c1Cl [Crizotinib] + Cn1cnc2c(F)c(Nc3ccc(Br)cc3Cl)c(C(=O)NOCCO)cc21 [Selumetinib] (first compound max 10 µM, 7x7, partner max 10 µM) | 0.545 | 0.292 | 0.491 | 0.508 | -0.0136 | -0.0087 | -0.0419 | 0.0624 | -0.0399 | -0.0227 | -0.0173 | -0.0199 | -0.0578 | -0.0566 | 0.0444 | 0.0644 | 0.0092 | -0.0483 | -0.0131 | -0.0236 |
| CS(=O)(=O)CCNCc1ccc(-c2ccc3ncnc(Nc4ccc(OCc5cccc(F)c5)c(Cl)c4)c3c2)o1 [Lapatinib] + Cn1cnc2c(F)c(Nc3ccc(Br)cc3Cl)c(C(=O)NOCCO)cc21 [Selumetinib] (first compound max 10 µM, 7x7, partner max 10 µM) | 0.341 | 0.597 | 0.426 | 0.58 | 0.0547 | 0.145 | 0.0188 | 0.0694 | -0.0366 | -0.0093 | 0.0085 | -0.0341 | 0.0075 | -0.0848 | -0.0196 | -0.0152 | 0.0337 | -0.0116 | -0.0311 | 0.0947 |
| CS(=O)(=O)CCNCc1ccc(-c2ccc3ncnc(Nc4ccc(OCc5cccc(F)c5)c(Cl)c4)c3c2)o1 [Lapatinib] + NC1(c2ccc(-c3nc4ccn5c(=O)[nH]nc5c4cc3-c3ccccc3)cc2)CCC1 [MK-2206] (first compound max 10 µM, 7x7, partner max 10 µM) | 0.587 | 0.888 | 0.779 | 0.763 | -0.0065 | 0.0213 | -0.0333 | -0.0069 | 0.0463 | -0.0165 | 0.0253 | -0.0208 | 0.0128 | -0.0218 | -0.0464 | 0.0098 | -0.0032 | 0.0264 | 0.0381 | 0.0501 |
| O=C(c1cc(Cc2n[nH]c(=O)c3ccccc23)ccc1F)N1CCN(C(=O)C2CC2)CC1 [Olaparib] + CC1(C)CCC(CN2CCN(c3ccc(C(=O)NS(=O)(=O)c4ccc(NCC5CCOCC5)c([N+](=O)[O-])c4)c(Oc4cnc5[nH]ccc5c4)c3)CC2)=C(c2ccc(Cl)cc2)C1 [Venetoclax] (first compound max 10 µM, 7x7, partner max 1 µM) | 0.0675 | 0.259 | 0.0709 | 0.137 | -0.0528 | 0.048 | -0.0522 | 0.0436 | -0.0608 | -0.0277 | -0.0581 | -0.045 | -0.0269 | -0.0626 | -0.0181 | 0.0744 | -0.0509 | -0.0482 | -0.115 | -0.0431 |
| O=C(c1cc(Cc2n[nH]c(=O)c3ccccc23)ccc1F)N1CCN(C(=O)C2CC2)CC1 [Olaparib] + CN(CC[C@H](CSC1=CC=CC=C1)NC2=C(C=C(C=C2)S(=O)(=O)NC(=O)C3=CC=C(C=C3)N4CCC(CC4)[C@H](C5=CC=CC=C5C6=CC=C(C=C6)Cl)O)S(=O)(=O)C(F)(F)F)CCO [AZD4320] (first compound max 10 µM, 7x7, partner max 1 µM) | 0.289 | 0.668 | 0.136 | 0.379 | 0.0086 | 0.0106 | -0.0572 | -0.0216 | -0.0134 | 0.0031 | 0.0335 | -0.003 | 0.0008 | 0.0192 | -0.016 | 0.134 | -0.054 | -0.0414 | -0.0625 | -0.0552 |
| O=C(c1cc(Cc2n[nH]c(=O)c3ccccc23)ccc1F)N1CCN(C(=O)C2CC2)CC1 [Olaparib] + COc1nnc2ccc(N3CCC(c4ccc(OCCN5CCN(C)C(=O)[C@H]5C)cc4)CC3)nn12 [AZD5153] (first compound max 10 µM, 7x7, partner max 1 µM) | 0.383 | 0.263 | 0.277 | 0.772 | -0.0014 | -0.02 | -0.0425 | 0.0123 | -0.0423 | -0.0002 | -0.0366 | -0.0663 | -0.0501 | -0.057 | -0.0169 | -0.042 | -0.105 | -0.0231 | -0.0551 | -0.0495 |
| O=C(c1cc(Cc2n[nH]c(=O)c3ccccc23)ccc1F)N1CCN(C(=O)C2CC2)CC1 [Olaparib] + Cc1c2c(nn1C)CSCc1cc(n(C)n1)CSc1cc(c3ccccc3c1)OCCCc1c(C(=O)O)n(C)c3c-2c(Cl)ccc13 [AZD5991] (first compound max 10 µM, 7x7, partner max 1 µM) | 0.0831 | 0.224 | 0.13 | 0.28 | -0.0182 | 0.0456 | -0.0392 | -0.0085 | -0.062 | -0.0375 | -0.005 | -0.0397 | -0.0277 | -0.0292 | -0.0244 | 0.0826 | -0.0322 | -0.0546 | -0.0621 | -0.0207 |
| N#Cc1cnc(Nc2cc(NC[C@H]3CNCCO3)c(C(F)(F)F)cn2)cn1 [SRA737] + Nc1ccn([C@@H]2O[C@H](CO)[C@@H](O)C2(F)F)c(=O)n1 [Gemcitabine] (first compound max 10 µM, 7x7, partner max 0.3 µM) | 0.595 | 0.803 | 0.67 | 0.673 | 0.0629 | 0.015 | -0.0059 | 0.0803 | -0.0192 | -0.0037 | 0.0721 | 0.0126 | 0.0323 | 0.114 | 0.0509 | 0.0213 | -0.0167 | -0.0079 | 0.0695 | -0.0884 |
| N#Cc1cnc(Nc2cc(NC[C@H]3CNCCO3)c(C(F)(F)F)cn2)cn1 [SRA737] + O=c1[nH]cc(F)c(=O)[nH]1 [5-Fluorouracil] (first compound max 10 µM, 7x7, partner max 20 µM) | 0.501 | 0.231 | 0.229 | 0.606 | -0.0007 | 0.0623 | -0.0591 | -0.0532 | -0.0495 | -0.0283 | 0.0099 | 0.0599 | -0.0277 | 0.0248 | 0.0929 | 0.0153 | -0.0495 | -0.0351 | 0.0056 | -0.053 |
| Cc1nc(-c2cn3c(n2)-c2ccc(-c4cnn(C(C)(C)C(N)=O)c4)cc2OCC3)n(C(C)C)n1 [Taselisib] + O=C(Nc1ccc2[nH]nc(-c3ccncc3)c2c1)[C@@H]1CCN(CC(=O)N2CCN(c3ccc(-c4ncccn4)cc3)CC2)C1 [SCH772984] (first compound max 10 µM, 7x7, partner max 5 µM) | 0.603 | 0.691 | 0.872 | 0.683 | 0.0679 | 0.0562 | -0.0046 | 0.0001 | -0.0174 | 0.0009 | 0.103 | 0.0303 | 0.0838 | 0.0044 | 0.0886 | 0.135 | 0.0708 | 0.0721 | 0.0748 | 0.0776 |
| CC1(C)CCC(CN2CCN(c3ccc(C(=O)NS(=O)(=O)c4ccc(NCC5CCOCC5)c([N+](=O)[O-])c4)c(Oc4cnc5[nH]ccc5c4)c3)CC2)=C(c2ccc(Cl)cc2)C1 [Venetoclax] + CS(=O)(=O)CCNCc1ccc(-c2ccc3ncnc(Nc4ccc(OCc5cccc(F)c5)c(Cl)c4)c3c2)o1 [Lapatinib] (first compound max 1 µM, 7x7, partner max 10 µM) | 0.244 | 0.522 | 0.308 | 0.341 | -0.0207 | -0.0212 | -0.0404 | 0.0267 | -0.0267 | -0.0299 | -0.0237 | -0.0254 | -0.0049 | -0.087 | -0.0248 | 0.0417 | -0.0553 | -0.0415 | -0.0054 | -0.0428 |
